Data reported in US20230257365A1, “SMALL MOLECULE ANDROGEN RECEPTOR PROTEIN DEGRADERS” (THE REGENTS OF THE UNIVERSITY OF MICHIGAN, priority 2020, published 2023).

Target: T1, AR protein (Homo sapiens, UniProt P10275)
T1 construct: endogenous in cells; host or cells: VCaP
T1 sequence (P10275 1-920): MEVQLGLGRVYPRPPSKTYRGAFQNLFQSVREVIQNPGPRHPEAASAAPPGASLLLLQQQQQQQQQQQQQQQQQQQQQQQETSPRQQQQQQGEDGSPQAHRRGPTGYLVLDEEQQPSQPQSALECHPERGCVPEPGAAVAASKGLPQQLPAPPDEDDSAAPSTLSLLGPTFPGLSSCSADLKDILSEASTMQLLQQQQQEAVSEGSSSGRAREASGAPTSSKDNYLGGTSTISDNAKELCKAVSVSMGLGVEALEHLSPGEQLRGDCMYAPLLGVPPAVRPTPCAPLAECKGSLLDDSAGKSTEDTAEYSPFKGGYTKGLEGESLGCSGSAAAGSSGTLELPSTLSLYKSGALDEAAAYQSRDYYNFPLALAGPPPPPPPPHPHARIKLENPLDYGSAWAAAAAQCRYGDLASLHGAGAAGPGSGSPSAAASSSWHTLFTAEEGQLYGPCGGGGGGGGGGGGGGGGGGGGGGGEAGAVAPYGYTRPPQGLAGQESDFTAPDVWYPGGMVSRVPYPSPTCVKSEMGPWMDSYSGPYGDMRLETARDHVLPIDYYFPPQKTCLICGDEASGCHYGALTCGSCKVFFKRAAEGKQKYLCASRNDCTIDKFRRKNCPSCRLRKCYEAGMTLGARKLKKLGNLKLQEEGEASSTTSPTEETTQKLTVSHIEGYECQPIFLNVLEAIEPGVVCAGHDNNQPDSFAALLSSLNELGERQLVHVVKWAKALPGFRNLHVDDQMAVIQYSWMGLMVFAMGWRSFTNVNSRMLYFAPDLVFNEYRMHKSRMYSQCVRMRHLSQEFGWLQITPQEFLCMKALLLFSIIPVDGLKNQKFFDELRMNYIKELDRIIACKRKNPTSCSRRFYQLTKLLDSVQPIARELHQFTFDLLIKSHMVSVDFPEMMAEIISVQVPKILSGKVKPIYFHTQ
Test: AR protein degradation by western blotting in VCaP cells
Format: cell-based
Experimental: The appropriate cell line, e.g., prostate cancer LNCaP, Vcap, or MDA-MB-453, cell line, was treated with Compounds of the Disclosure. The treated cells were lysed with RIPA buffer. The AR level in the cell lysates was examined by western blotting and a specific AR antibody (ab 194196, Abeam, Cambridge, Mass. 02139) with concentration of 1:20,000. GAPDH was used as a loading control.
Bands were quantified with ImageJ software. The relative numbers of each band obtained from normalization with its corresponding GAPDH level were compared with Prism 8 software. The DC50 values were produced from Prism 8, and the DC90 values were calculated with an equation=Bottom+(Top−Bottom)/(1+10^((Log EC50−X)*HillSlope) based on DC50 and Hillslope values.
The amount of AR protein degradation in LNCap, VCap, and MDA-MB-453 cells caused representative Compounds of the Disclosure at the concentrations indicated is presented in Table 4.

N#Cc1ccc(OC2CCCN(C(=O)c3ccc(N4CCC(N5CCN(c6ccc7c(c6)C(=O)N(C6CCC(=O)NC6=O)C7=O)CC5)CC4)cc3)CC2)cc1Cl (stereo not drawn) [compound 337, 2-chloro-4-((1-(4-(4-(4-(2-(2,6-dioxopiperidin-3-yl)-1,3-dioxoisoindolin-5-yl)piperazin-1-yl)piperidin-1-yl)benzoyl)azepan-4-yl)oxy)benzonitrile]
% AR protein degradation in VCaP Cells (0.001 μM): 18%
% AR protein degradation in VCaP Cells (0.01 μM): 12%
% AR protein degradation in VCaP Cells (0.1 μM): 9%
% AR protein degradation in VCaP Cells (1 μM): 29%

N#Cc1ccc(-c2ccn(Cc3ccc(C(=O)N4CCN(C5CCN(c6ccc7c(c6)C(=O)N(C6CCC(=O)NC6=O)C7=O)CC5)CC4)cc3)n2)cc1Cl (stereo not drawn) [compound 338, 2-chloro-4-(1-(4-(4-(1-(2-(2,6-dioxopiperidin-3-yl)-1,3-dioxoisoindolin-5-yl)piperidin-4-yl)piperazine-1-carbonyl)benzyl)-1H-pyrazol-3-yl)benzonitrile]
% AR protein degradation in VCaP Cells (0.001 μM): −1%
% AR protein degradation in VCaP Cells (0.01 μM): −12%
% AR protein degradation in VCaP Cells (0.1 μM): 8%
% AR protein degradation in VCaP Cells (1 μM): 93%

N#Cc1ccc(OC2CCN(C(=O)c3ccc(N4CCC(N5CCN(c6ccc7c(c6)C(=O)N(C6CCC(=O)NC6=O)C7=O)CC5)CC4)cc3)CC2)cc1Cl (stereo not drawn) [compound 336, 2-chloro-4-((1-(4-(4-(4-(2-(2,6-dioxopiperidin-3-yl)-1,3-dioxoisoindolin-5-yl)piperazin-1-yl)piperidin-1-yl)benzoyl)piperidin-4-yl)oxy)benzonitrile]
% AR protein degradation in VCaP Cells (0.001 μM): 3%
% AR protein degradation in VCaP Cells (0.01 μM): −5%
% AR protein degradation in VCaP Cells (0.1 μM): −5%
% AR protein degradation in VCaP Cells (1 μM): 4%
